Test [1] deals with Phytophthora litchii. The test can be described thus: Antifungal activity against Peronophythora litchii at 1 mg/mL by disc diffusion method. A general note: A growth-free zone around the sample is the usual read-out of agar diffusion tests.
The nature of test [2]: Antifungal activity against […] musarum at 1 mg/mL by disc diffusion method. The following applies: Gloeosporium.
Test [3] relates to Glomerella cingulata. The test can be described thus: Antifungal activity against Glomerella cingulata at 1 mg/mL by disc diffusion method.
Test [4] can be described thus: Antifungal activity against Glorosprium musarum at 1 ug/mL by disc diffusion method. The format is functional. The conditions noted are these: Gloeosporium.

Among the data in ChEMBL document CHEMBL1147121, “Dammarane triterpenoids from the roots of Gentiana rigescens” (2007) are Activity and inhibition zone (IZ) values, retold here.

Activity calls are given as the source filed them. The rule behind the calls is not given here.

Turning to `CC1(C)O[C@](C(=O)O)([C@H]2CC[C@]3(C)[C@@H]2CC[C@@H]2[C@@]4(C)CC[C@H](O[C@@H]5O[C@H](CO)[C@@H](O)[C@H](O)[C@H]5O)[C@](C)(CO[C@@H]5O[C@H](CO)[C@@H](O)[C@H](O)[C@H]5O)[C@@H]4CC[C@]23C)C[C@H](O)[C@@H]1O` [GENTIRIGEOSIDE C], the result in test [1] and in test [2] was inactive.
`CC1(C)O[C@](C(=O)O)([C@H]2CC[C@]3(C)[C@@H]2CC[C@@H]2[C@@]4(C)CC[C@H](O[C@@H]5O[C@H](CO)[C@@H](O)[C@H](O)[C@H]5O[C@@H]5O[C@H](CO)[C@@H](O)[C@H](O)[C@H]5O)C(C)(C)[C@@H]4CC[C@]23C)C[C@H](O)[C@@H]1O` [GENTIRIGEOSIDE E]: the outcome in test [1] and in test [2] was inactive.
As for `C[C@]12CC[C@H](O[C@@H]3O[C@H](CO)[C@@H](O)[C@H](O)[C@H]3O)[C@](C)(CO)[C@@H]1CC[C@]1(C)[C@@H]2CC[C@@H]2[C@@H]([C@]3(C(=O)O)C[C@H](O)[C@H](O)[C@](C)(CO)O3)CC[C@]21C`, the outcome in test [3], in test [1] and in test [2] was inactive.
As for `CC1(C)O[C@](C(=O)O)([C@H]2CC[C@]3(C)[C@@H]2CC[C@@H]2[C@@]4(C)CC[C@H](O)[C@](C)(CO)[C@@H]4CC[C@]23C)C[C@H](O)[C@@H]1O`, the outcome in test [3], in test [1] and in test [2] was inactive.
For the compound `COC(=O)Nc1nc2ccccc2[nH]1` [CARBENDAZIM], the inhibition zone (IZ) in test [4] was determined as 4 mm.
For the compound `CC1(C)O[C@](C(=O)O)([C@H]2CC[C@]3(C)[C@@H]2CC[C@@H]2[C@@]4(C)CC[C@H](O[C@@H]5O[C@H](CO)[C@@H](O)[C@H](O)[C@H]5O[C@@H]5O[C@H](CO)[C@@H](O)[C@H](O)[C@H]5O)[C@](C)(CO)[C@@H]4CC[C@]23C)C[C@H](O)[C@@H]1O`, the result in test [3], in test [1] and in test [2] was inactive.
On to `CC1(C)O[C@](C(=O)O)([C@H]2CC[C@]3(C)[C@@H]2CC[C@@H]2[C@@]4(C)CC[C@H](O[C@@H]5O[C@H](CO)[C@@H](O)[C@H](O)[C@H]5O)[C@](C)(CO)[C@@H]4CC[C@]23C)C[C@H](O)[C@@H]1O` [GENTIRIGEOSIDE A], for which the result in test [1] and in test [2] was inactive.
